Experiment [1] has as its system MBT-2 cells. The experiment can be described thus: MBT-2 cell proliferation assay (MTS tetrazolium). The class given is cell-based. The conditions noted are these: 3 days, medium with free or extracted paclitaxel replaced every day, 2.9×10^−6 M to 2.9×10^−9 M or serial dilutions. How it is done: MBT-2 cells in culture flasks were maintained in Dulbecco's Modified Eagles Medium, 10% fetal calf serum, 100 μg/mL penicillin and 100 μg/mL streptomycin at 37° C. in an atmosphere of 5% CO2.
For proliferation assay experiments, cells were harvested with Trypsin-EDTA and seeded (3,000 cells) on an uncoated 96-well plate (Falcon). A standard curve was established by using paclitaxel solutions that were prepared by first dissolving paclitaxel in dimethylsulfoxide (DMSO), then dilution with culture medium. Final concentration of DMSO was 0.75%. After 1 day, the culture medium was replaced by medium containing free paclitaxel, with concentrations ranging from 2.9×10^−6 M to 2.9×10^−9 M or paclitaxel extracted from a paclitaxel-loaded microparticle, with serial dilutions. […] After 3 days, cell proliferation was measured by a tetrazolium-based assay (CellTiter96, Promega). […] Formazan production, related to enzymatic cell activity, was determined at 490 rim (Biorad plate reader Model 550). Results are expressed as a percentage of growth inhibition compared to cells incubated in the same conditions with medium. Paclitaxel encapsulation was then calculated from the standard curve of growth inhibition of free paxlitaxel.
Paclitaxel-loaded microparticle activity on MBT-2 cells was also determined with no extraction process. […] After 3 days, cell proliferation was measured as described above.

Experiment [2] deals with MBT-2 cells. The experiment can be described thus: Observation of MBT-2 cells after incubation with free paclitaxel or particles (confocal microscope). The experiment is classed as cell-based. The conditions noted are these: 4.4×10^−5 M paclitaxel, observed on day 4. The protocol:
Cells were also observed after incubation with free paclitaxel or particles. Cells were seeded on chambered cover-glasses (Labtek). After 1 day, free paclitaxel (4.4×10^−5 M) or particles (same concentration of paclitaxel) were added. Medium was replaced every day with free paclitaxel or medium only in the case of the particles. On day 4, cells were washed, fixed during 30 minutes with paraformaldehyde (2%) then observed with a confocal microscope (Zweiss Axiovert 100) for localization of particles.

For experiment [3], the system named is BBN-induced bladder cancer. The experiment can be described thus: Antitumor activity on BBN-induced bladder cancer: survival and body weight. The class given is in vivo. The conditions noted are these: BBN mice. How it is done:
(§1) Bladder cancer was induced in female Balb-c mice (8 weeks old) with the carcinogen BBN that was given as a 0.05% solution in the drinking water during 4 weeks. Mice were then treated intravesically (50 μL) with free paclitaxel ([…]) in Tween 80 5%), loaded particles (100 μg) or unloaded particle suspensions. Schedule of administration was the following: mice received the treatment every week during 4 weeks or every other week during 4 weeks. Body weights were recorded every week for all the animals. One week after the last instillation, all the animals were killed. Bladders were removed, weighed and fixed in paraformaldehyde 10% overnight then embedded in paraffin and sectioned.
The anti-cancer activity of paclitaxel encapsulated in microparticles of the invention was assayed against bladder cancer following intravesical instillation. Experimental bladder cancer was induced in female Balb/c mice with BBN, a carcinogenic compound that was added to the drinking water 4 weeks before starting the treatment we compared the same dose (100 μg) of free paclitaxel, encapsulated paclitaxel and non-loaded particles as a control (12 animals per group). Mice received the treatment either once a week or every other week for 4 weeks and number of surviving mice as well as body weight of mice were recorded every week. […]

The test system of experiment [4] is BBN-induced bladder cancer. Kind of experiment: Histologic evaluation and BrdU proliferation index of bladder sections of BBN-mice. The conditions noted are these: for Dysplasia (No) / HGTCC (No): number of animals; for CIS (No): number of animals with carcinoma in situ. The class given is in vivo. The protocol:
as §1
One week after the last instillation, all the animals were sacrificed and histologic evaluation was performed on haematoxilin and eosin stained sections (table 1). […] In the group treated with free paclitaxel once a week or every other week, CS was found in 5 cases (71°/b) and 7 cases (78%), respectively. On the contrary, no animal of 7 (0%) in the group treated with encapsulated paclitaxel once a week had CIS. Only 2 animals of 9 (22%) treated with particles every other week had CIS. In the groups treated with the paclitaxel, the urothelium was focally or predominantly denuded.
Proliferation index was calculated on these sections using the BrdU incroporation into proliferative cells. BrdU staining was localized in the nucleus with a fine granularity. Nuclei were considered BrdU positve if any nuclear staining was observed. The control group presented a proliferative index of 30% compared to the proliferative index of 10% in a normal urothelium. In all other groups, there was a high proliferative index, from about 35% in groups receiving encapsulated paclitaxel to 65% in groups receiving free paclitaxel.

[5] abbreviates: 100 μg every other week for 4 weeks.

Structures are written as SMILES.

As to `CC(=O)O[C@H]1C(=O)[C@@]2(C)[C@H]([C@H](OC(=O)c3ccccc3)[C@]3(O)C[C@H](OC(=O)[C@H](O)[C@@H](NC(=O)c4ccccc4)c4ccccc4)C(C)=C1C3(C)C)[C@]1(OC(C)=O)CO[C@@H]1C[C@@H]2O` [paclitaxel extracted], the MBT-2 cell proliferation result in the experiment on MBT-2 cells [1] is “the same trend was observed”.
Take `CC(=O)O[C@H]1C(=O)[C@@]2(C)[C@H]([C@H](OC(=O)c3ccccc3)[C@]3(O)C[C@H](OC(=O)[C@H](O)[C@@H](NC(=O)c4ccccc4)c4ccccc4)C(C)=C1C3(C)C)[C@]1(OC(C)=O)CO[C@@H]1C[C@@H]2O` [Free paclitaxel, Paclitaxel]: in the experiment on MBT-2 cells [1], the MBT-2 cell proliferation result is listed as “decreased with an increased concentration”. The “shape of the cells” value in the experiment with MBT-2 cells [2] was “modification of the shape of the cells was observed”. In addition, the survival rate in experiment [3] (100 μg intravesically every other week for 4 weeks) and in experiment [3] (100 μg intravesically once a week for 4 weeks) was 82% each time. In addition, the “CIS (%)” value in experiment [4] (setting [5]) was “(78%)”; in experiment [4] (100 μg every other week for 4 weeks, listed as free paclitaxel), 78%; in experiment [4] (100 μg once a week for 4 weeks), “(71%)”; in experiment [4] (100 μg once a week for 4 weeks, listed as free paclitaxel) it was 71%. Also, the “Proliferative Index (%)” value turned out to be 61% in experiment [4] (100 μg every other week for 4 weeks, BrdU) and 65% in experiment [4] (100 μg once a week for 4 weeks, BrdU). Further, the “Dysplasia (No)” value stood at 1 in experiment [4] (setting [5]) and 0 in experiment [4] (100 μg once a week for 4 weeks). For the same compound, the “HGTCC (No)” value in experiment [4] (setting [5]) and in experiment [4] (100 μg once a week for 4 weeks) was 1 throughout. Besides, the “CIS (No)” value in experiment [4] (setting [5]) was determined as 7; in experiment [4] (100 μg once a week for 4 weeks), 5. Besides, the “effect on the incidence of CIS” value in experiment [4] (100 μg, BBN induced bladder cancer) is “almost no effect”. Besides, in experiment [4] (BrdU, groups without stated schedule), the proliferative index came out at 65%.

The values are drawn from patent US20030008015A1, “Polymer controlled delivery of a therapeutic agent” (priority 2000, published 2003).
